In patent US20210395210A1, “INHIBITION OF BACTERIAL CHAPERONIN SYSTEMS” (THE TRUSTEES OF INDIANA UNIVERSITY, priority 2018, published 2021):
Read-outs that look alike come from different tables or passages of the source.

Assays:
[1] = system: Drug sensitive Staphylococcus aureus (ATCC 25923); test: Bacterial proliferation assay, drug sensitive S. aureus; type: cell-based
Outline: (§1)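 Cation-adjusted BHI (25 mg/L Ca2+, 12.5 mg/L Mg2+); inoculum OD600 0.017; static 37 °C. Read OD600 at 6-8 h for S. aureus, E. cloacae, P. aeruginosa; 24 h for A. baumannii.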

[2] = system: Enterococcus faecium (ATCC 19434); test: Bacterial proliferation assay, E. faecium; type: cell-based
Outline: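 This stagnant growth-inhibition assay used E. faecium (ATCC 19434) in cation-adjusted Brain Heart Infusion medium. Diluted cultures (OD600 0.017) were added to clear flat-bottom 384-well plates containing 0.5 μL compound in 20 μL media. After 24 h without shaking at 37° C., absorbance at 600 nm was measured, corrected with bacteria-free plates, and EC50 values were averaged from quadruplicates.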

human HSP60/10 = biological target: T1, human HSP60/10 (Homo sapiens, UniProt P10809); test: HSP60/10-mediated dMDH refolding assay; type: biochemical; conditions: human HSP60/10-dMDH refolding assay
T1 construct: octa-Histidine tag (TEV-cleavable) (N, cleaved yes); made in house; host or cells: HSP60 in E. coli Rosetta 2 (DE3); HSP10 in Rosetta 2 (DE3) pLysS
Outline: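 Refolding activity followed via MDH turnover, measured as the A340 drop from NADH with sodium mesoxalate, after ATP-driven chaperonin cycling at 37° C and EDTA quench. Refolding mix: 50 nM GroEL or HSP60, 60 nM GroES or HSP10, 12 nM denatured MDH, 1 mM ATP, compound 100 μM–46 nM (3-fold). IC50s averaged from quadruplicates.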

[3] = system: Enterobacter cloacae (ATCC 13047); test: Bacterial proliferation assay, E. cloacae; type: cell-based
Outline: as §1

[4] = system: Pseudomonas aeruginosa (ATCC 10145); test: Bacterial proliferation assay, P. aeruginosa; type: cell-based
Outline: as §1

[5] = ATCC25923, OD600 at 6-8 h, read-out: Bacterial Proliferation EC50 S. aureus Sensitive
[6] = ATCC25923, log of EC50 (μM scale), with standard deviation, read-out: log(EC50) Bacterial Proliferation Assay S. aureus Sensitive (converted)
[7] = ATCC19434, OD600 at 24 h, read-out: Bacterial Proliferation EC50 E. faecium
[8] = ATCC19434, log of EC50 (μM scale), with standard deviation, read-out: log(EC50) Bacterial Proliferation Assay C. faecium (converted)
[9] = read-out: HSP60/10-dMDH Refolding IC50
[10] = log(IC50) ± standard deviation, read-out: HSP60/10-dMDH Refolding Assay log(IC50) (converted)
[11] = ATCC13047, OD600 at 6-8 h, read-out: Bacterial Proliferation EC50 E. cloacae
[12] = ATCC13047, log of EC50 (μM scale), with standard deviation, read-out: log(EC50) Bacterial Proliferation Assay E. cloacae (converted)
[13] = ATCC10145, OD600 at 6-8 h, read-out: Bacterial Proliferation EC50 P. aeruginosa
[14] = ATCC10145, log of EC50 (μM scale), with standard deviation, read-out: log(EC50) Bacterial Proliferation Assay P. aeruginosa (converted)
[15] = ATCC25923, read-out: Bacterial Proliferation EC50 S. aureus Sensitive
[16] = ATCC25923, read-out: S. aureus Proliferation & Biofilm Assay EC50 Planktonic Growth
[17] = ATCC25923, read-out: log(EC50) Bacterial Proliferation Assay S. aureus Sensitive (converted)
[18] = ATCC19434, 24 h, read-out: Bacterial Proliferation EC50 E. faecium
[19] = ATCC19434, read-out: log(EC50) Bacterial Proliferation Assay C. faecium (converted)
[20] = ATCC13047, read-out: Bacterial Proliferation EC50 E. cloacae
[21] = ATCC13047, read-out: log(EC50) Bacterial Proliferation Assay E. cloacae (converted)
[22] = ATCC10145, read-out: Bacterial Proliferation EC50 P. aeruginosa
[23] = ATCC10145, read-out: log(EC50) Bacterial Proliferation Assay P. aeruginosa (converted)

T1 sequence (P10809 27-573): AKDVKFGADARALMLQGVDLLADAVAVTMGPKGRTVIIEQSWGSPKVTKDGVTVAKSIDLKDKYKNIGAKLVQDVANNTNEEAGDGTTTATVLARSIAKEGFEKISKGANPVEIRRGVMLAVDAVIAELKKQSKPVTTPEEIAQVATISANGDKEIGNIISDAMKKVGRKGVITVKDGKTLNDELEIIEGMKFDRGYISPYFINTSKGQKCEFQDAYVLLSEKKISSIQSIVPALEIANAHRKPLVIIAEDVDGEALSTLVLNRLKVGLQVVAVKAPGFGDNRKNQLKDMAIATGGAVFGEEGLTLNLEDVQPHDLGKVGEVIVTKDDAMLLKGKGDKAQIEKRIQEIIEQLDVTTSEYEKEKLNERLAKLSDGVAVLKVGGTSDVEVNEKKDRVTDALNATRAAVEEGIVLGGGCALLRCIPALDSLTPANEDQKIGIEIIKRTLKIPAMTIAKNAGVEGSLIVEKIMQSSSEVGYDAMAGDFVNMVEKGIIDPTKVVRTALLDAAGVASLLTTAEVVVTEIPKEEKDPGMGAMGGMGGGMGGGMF

Structure (SMILES)	EC50 [1, 5]	EC50 [1, 6]	EC50 [2, 7]	EC50 [2, 8]	IC50 (human HSP60/10; [9])	IC50 (human HSP60/10; [10])	EC50 [3, 11]	EC50 [3, 12]	EC50 [4, 13]	EC50 [4, 14]	EC50 [1, 15]	EC50 [1, 16]	EC50 [1, 17]	EC50 [2, 18]	EC50 [2, 19]	EC50 [3, 20]	EC50 [3, 21]	EC50 [4, 22]	EC50 [4, 23]
O=C(Nc1ccc(Sc2nc3ccccc3s2)cc1)c1ccccc1 [Compound 22, N-(4-(Benzo[d]thiazol-2-ylthio)phenyl)benzamide]	> 100 µM	> 100 µM	> 100 µM	> 100 µM	> 100 µM	> 100 µM	> 100 µM	> 100 µM	> 100 µM	> 100 µM	–	–	–	–	–	–	–	–	–
O=C(Nc1cccc(Cl)c1)c1cccc(Br)c1O [Compound 10, 3-Bromo-N-(3-chlorophenyl)-2-hydroxybenzamide]	1.3 µM	1.32 µM	> 100 µM	> 100 µM	> 100 µM	> 100 µM	> 100 µM	> 100 µM	> 100 µM	> 100 µM	–	–	–	–	–	–	–	–	–
COc1ccc(Br)cc1C(=O)Nc1ccc(Sc2nc3ccccc3s2)c(Cl)c1 [Compound 31, N-(4-(Benzo[d]thiazol-2-ylthio)-3-chlorophenyl)-5-bromo-2-methoxybenzamide]	> 100 µM	> 100 µM	> 100 µM	> 100 µM	> 100 µM	> 100 µM	> 100 µM	> 100 µM	> 100 µM	> 100 µM	–	–	–	–	–	–	–	–	–
O=C(Nc1ccccc1)c1cccc(Br)c1 [Compound 27, 3-Bromo-N-phenylbenzamide]	> 100 µM	> 100 µM	> 100 µM	> 100 µM	> 100 µM	> 100 µM	> 100 µM	> 100 µM	> 100 µM	> 100 µM	–	–	–	–	–	–	–	–	–
O=C(Nc1ccc(Sc2nc3ccccc3s2)c(Cl)c1)c1ccccc1 [Compound 19, N-(4-(Benzo[d]thiazol-2-ylthio)-3-chlorophenyl)benzamide]	43 µM	42.7 µM	> 100 µM	> 100 µM	> 100 µM	> 100 µM	> 100 µM	> 100 µM	> 100 µM	> 100 µM	–	–	–	–	–	–	–	–	–
COc1ccccc1C(=O)Nc1cccc(Cl)c1 [Compound 40, N-(3-Chlorophenyl)-2-methoxybenzamide]	> 100 µM	> 100 µM	> 100 µM	> 100 µM	> 100 µM	> 100 µM	> 100 µM	> 100 µM	> 100 µM	> 100 µM	–	–	–	–	–	–	–	–	–
COc1ccc(Br)cc1C(=O)Nc1ccc(Sc2nc3ccccc3s2)cc1 [Compound 35, N-(4-(Benzo[d]thiazol-2-ylthio)phenyl)-5-bromo-2-methoxybenzamide]	> 100 µM	> 100 µM	> 100 µM	> 100 µM	> 100 µM	> 100 µM	> 100 µM	> 100 µM	> 100 µM	> 100 µM	–	–	–	–	–	–	–	–	–
O=C(Nc1ccc(Sc2nc3ccccc3s2)c(Cl)c1)c1cccc(Br)c1O [Compound 2, N-(4-(Benzo[d]thiazol-2-ylthio)-3-chlorophenyl)-3-bromo-2-hydroxybenzamide]	–	–	–	–	6.9 µM	6.92 µM	–	–	–	–	0.45 µM	0.45 µM	0.457 µM	24 µM	23.4 µM	> 100 µM	> 100 µM	> 100 µM	> 100 µM
O=C(Nc1ccc(Sc2nc3ccccc3s2)c(Cl)c1)c1cc(Br)cc(Br)c1O [Compound 1, N-(4-(Benzo[d]thiazol-2-ylthio)-3-chlorophenyl)-3,5-dibromo-2-hydroxybenzamide]	–	–	–	–	4.2 µM	4.17 µM	–	–	–	–	0.36 µM	0.36 µM	0.363 µM	0.52 µM	0.513 µM	> 100 µM	> 100 µM	> 100 µM	> 100 µM
COc1c(Br)cc(Br)cc1C(=O)Nc1ccc(Sc2nc3ccccc3s2)cc1 [Compound 33, N-(4-(Benzo[d]thiazol-2-ylthio)phenyl)-3,5-dibromo-2-methoxybenzamide]	> 100 µM	> 100 µM	> 100 µM	> 100 µM	> 100 µM	> 100 µM	> 100 µM	> 100 µM	> 100 µM	> 100 µM	–	–	–	–	–	–	–	–	–
COc1c(Br)cc(Br)cc1C(=O)Nc1ccc(Sc2nc3ccccc3s2)c(Cl)c1 [Compound 29, N-(4-(Benzo[d]thiazol-2-ylthio)-3-chlorophenyl)-3,5-dibromo-2-methoxybenzamide]	> 100 µM	> 100 µM	> 100 µM	> 100 µM	> 100 µM	> 100 µM	> 100 µM	> 100 µM	> 100 µM	> 100 µM	–	–	–	–	–	–	–	–	–
CC1(C)S[C@@H]2[C@H](NC(=O)[C@H](N)c3ccccc3)C(=O)N2[C@H]1C(=O)O [Ampicillin, ampicillin, reference compound]	0.19 µM	0.195 µM	6.9 µM	6.92 µM	> 100 µM	> 100 µM	> 100 µM	> 100 µM	> 100 µM	> 100 µM	–	–	–	–	–	–	–	–	–
COc1ccccc1C(=O)Nc1ccc(Sc2nc3ccccc3s2)c(Cl)c1 [Compound 32, N-(4-(Benzo[d]thiazol-2-ylthio)-3-chlorophenyl)-2-methoxybenzamide]	> 100 µM	> 100 µM	> 100 µM	> 100 µM	> 100 µM	> 100 µM	> 100 µM	> 100 µM	> 100 µM	> 100 µM	–	–	–	–	–	–	–	–	–
